Results taken from patent US7041465B1 (priority 1999, dated 2006).
Where two headings read alike, the source gives them in different places.

Columns and labels:
FimH binding to FimC = FimH binding to FimC (Escherichia coli, UniProt P08191); settings: FimC coated at 0.1 nmol/well, FimH 5 pmol/well; for Inhibition of FimH binding to FimC immobilized on microtiter wells: peptide at 2 nmol/well (tested concentration), FIG. 14; for FimH binding to immobilized FimC in the presence of increasing concentrations of peptide: FIG. 13
Sequence of FimH binding to FimC (P08191 22-300): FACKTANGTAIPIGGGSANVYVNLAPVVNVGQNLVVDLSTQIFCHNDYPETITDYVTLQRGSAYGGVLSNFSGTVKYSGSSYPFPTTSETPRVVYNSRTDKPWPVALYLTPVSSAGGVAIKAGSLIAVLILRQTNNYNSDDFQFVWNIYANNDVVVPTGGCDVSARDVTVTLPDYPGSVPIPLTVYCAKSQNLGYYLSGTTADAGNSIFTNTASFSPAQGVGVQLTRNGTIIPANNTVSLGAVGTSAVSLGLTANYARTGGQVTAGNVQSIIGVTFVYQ
Method: (§1) The peptides were diluted in phosphate buffered saline (PBS) (120 mM NaCl, 2.7 mM KCl, 10 mM, […], pH 7.4) to 2 nmol/50 μl. FimC protein was diluted to 0.1 nmol/50 μl and coated overnight onto microtiter wells with 50 μl/well at 4° C. The ELISA assay was carried out as described in Kuehn et al., 1993 and Hung et al., 1996. Briefly, the wells were washed three times with PBS and blocked with 3% Bovine Serum Albumin (BSA) in PBS for two hours at 25° C. Then the wells were washed three times with PBS. The FimC-FimH co-complex was incubated in 3 M urea to separate the two proteins. Pure FimH in 3 M urea was collected from the flow through of a Source 15S column (Pharmacia). See Barnhart et al., PNAS USA 97: 7709–7714 (2000). The wells were incubated with 50 μl of FimH in 3% BSA-PBS diluted to 5–25 pmol/well FimH for 45 minutes at 25° C. The wells were washed 3 times with PBS followed by incubation with a 1:1000 dilution of mouse anti-FimH antibodies in 3% BSA-PBS for 45 minutes at 25° C. The wells were washed 3 times with PBS followed by incubation with a 1:1000 dilution of goat antiserum to mouse IgG (Sigma) conjugated to alkaline phosphatase diluted in 3% BSA-PBS for 45 minutes at 25° C. The wells were washed 3 times with PBS and washed 3 times with developing buffer (10 mM diethanolamine, 0.4 mM MgCl2). The ELISA was developed by adding 50 μl of substrate (50 μl of filtered 1 mg/ml p-nitrophenyl phosphate; Sigma) in developing buffer. The reaction was incubated for 1 hour at 25° C. in the dark and the absorbance at 405 nm was read.
(§2) The competition assays were carried out similarly. FimC was coated onto microtiter wells at 0.1 nmol/well. FimH at 5 pmol/well in 3% BSA-PBS was added to the FimC coated wells in the presence or the absence of the FimC or FimG peptide at 2 nmol/well or the indicated peptide concentration. Further, increasing concentrations of FimH were incubated with constant concentrations of the FimC or FimG peptides or the FimC protein immobilized on microtiter wells. […] FimH was added to the FimC coated wells in the presence or absence of peptides to FimC or FimG.

FimH = FimH (Escherichia coli, UniProt P08191); settings: peptides coated at 2 nmol/50 μl, FimC protein at 0.1 nmol/50 μl; increasing concentrations of FimH (5–25 pmol/well); FIG. 12
Sequence of FimH (P08191 22-300): as above
Method: as §1, §2

| Sequence | Inhibition of FimH binding to FimC immobilized on microtiter wells (FimH binding to FimC) | FimH binding to the immobilized peptide or FimC protein (ELISA, anti-FimH antibodies, absorbance at 405 nm) (FimH) | FimH binding to immobilized FimC in the presence of increasing concentrations of peptide (FimH binding to FimC) | FimH binding to immobilized FimC in the presence of increasing concentrations of peptide (FimH binding to FimC; listed as FimC polypeptide) |
| --- | --- | --- | --- | --- |
| DVTITVNGK [FimG peptide] | did not inhibit | bound well | – | – |
| NTLQLAIISR [FimC peptide] | inhibited the ability of FimH to bind to FimC | bound well | further decreased the ability of FimH to bind to FimC | inhibit FimH binding to FimC |
